Data reported in patent publication US7494996B2 (priority 2000, dated 2009).

Tests used:
[1] = tested on: Sphaerotheca fuliginea; experiment: Cucumber Powdery Mildew (CPM) protectant test in the greenhouse; assay type: in vivo; details: 100 is total disease control, 0 is no disease control; for Cucumber Powdery Mildew (CPM) protectant fungicide data, percent control: 300 g/ha; for pest or weed control at 300 g/ha: Podosphaera fuliginea, topical, 168 h, read-out: Cucumber Powdery Mildew (CPM) protectant fungicide data, percent control
Procedure: Plants used in the fungicide testing program were grown in 2-¼-inch (5.7-cm). square pots containing RediEarth propagation substrate. The plants were raised under greenhouse conditions. The rice plants were 12-days-old and cucumbers were 13-days-old at the time of spraying with chemical treatments.
The sample of the experimental chemical was weighed and dissolved in an acetone-methanol-water solution (A/M/W at 1:1:2 ratio by volume).
After sprayer calibration, the test solutions were poured into the fungicide sprayer. The fungicide sprayer contains three spray nozzles, located approximately 10 cm above and to the sides of the plants. The spray produced by the nozzles results in uniform coverage of both the upper and lower parts of the plant leaves. After spraying, the treated plants were placed in a drying chamber for 4 hours, prior to sorting.
Cucumber Powdery Mildew (CPM), caused by the fungus Sphaerotheca fuliginea, was maintained on large cucumber plants. For inoculum preparation, five to eight leaves depending on size, completely covered with powdery mildew spores, were collected. The leaves were placed in a glass jar and covered with 500 ml of water, containing 5 drops of Tween-80. The material was filtered through two layers of cheesecloth to remove leaf fragments. The spore count was adjusted to 2×10^5 spores per ml.
Cucumber plants, cv. “Bush Champion,” were used for this test. The plants were thinned to one per pot after the cotyledons were fully developed. Two days before the test, the small leaves and meristem region were removed, leaving only the cotyledons and one large true leaf.
The protectant tests required that the cucumber plants be inoculated 1 day after spraying with the chemical treatment. The plants were inoculated with a hand-held spray bottle with the suspension of fungal spores. The leaves were lightly misted on the upper surface from two different spray directions. Disease development occurred in the greenhouse.
After seven days, the plants were evaluated for percent of disease control. The results are reported as percent control; 100 is total disease control, 0 is no disease control.

[2] = tested on: Pyricularia oryzae; experiment: whole plant or invertebrate; assay type: in vivo; details: 100 is total disease control, 0 is no disease control; for Rice Blast (RB) protectant fungicide data, percent control: 300 g/ha, greenhouse; for pest or weed control at 300 g/ha: Pyricularia oryzae, topical, 144 h, read-out: Rice Blast (RB) protectant fungicide data, percent control, protectant, 300 g/ha, greenhouse

Compound | Cucumber Powdery Mildew (CPM) protectant fungicide data, percent control [1] | Rice Blast (RB) protectant fungicide data, percent control [2] | pest or weed control at 300 g/ha [1] | pest or weed control at 300 g/ha [2]
CCCCN1N=C(c2cccc(C#N)c2)NCC1=O [Compound 175] | 0 percent control | 95 percent control |  | 
O=C1CNC(c2cc(Cl)cc(Cl)c2)=NN1CC=CCl (mixture of isomers) [Compound 67] | 80 percent control | 99 percent control |  | 
O=C1CNC(c2ccc(Cl)cc2)=NN1Cc1ccc(Cl)s1 [Compound 62] | 0 percent control | 85 percent control |  | 
CCc1ccc(C2=NN(CCc3ccccc3)C(=O)CN2)cc1 [Compound 189] | 75 percent control | 80 percent control |  | 
CCCCN1N=C(c2cc(Cl)ccc2Cl)NCC1=O [Compound 74] | 0 percent control | 99 percent control |  | 
CCOc1ccc(-c2ncc(=O)n(-c3ccc(Cl)cc3)n2)cc1 [Compound 274] | 0 percent control | 85 percent control |  | 
O=C1CNC(c2ccc(-c3ccc([N+](=O)[O-])cc3)cc2)=NN1CC(F)(F)F [Compound 142] | 0 percent control | 80 percent control |  | 
FC(F)(F)Cn1nc(-c2cccc(Cl)c2)ncc1=S [Compound 246] | 0 percent control | 100 percent control |  | 
O=C1CNC(c2ccc3ccccc3c2)=NN1 [Compound 124] | 0 percent control | 75 percent control |  | 
O=c1cnc(-c2ccc(Cl)c(Cl)c2)nn1CC1CC1 [Compound 272] | 80 percent control | 100 percent control |  | 
CCCCN1N=C(c2ccc(Cl)c(Cl)c2)N(C(=O)Oc2ccccc2)CC1=O [Compound 173] | 0 percent control | 50 percent control |  | 
CCC#CCN1CC(=O)N(CCCC)N=C1c1ccc(Cl)c(Cl)c1 [Compound 180] | 90 percent control | 95 percent control |  | 
O=C1CNC(c2ccc(Cl)cc2)=NN1Cc1ccccc1 [Compound 30] | 75 percent control | 85 percent control |  | 
CCCCn1nc(-c2cccc(Cl)c2)ncc1=O [Compound 277] | 0 percent control | 95 percent control |  | 
CCCCN1N=C(c2ccc(Cl)c(Cl)c2)N(C(=O)OCCCl)CC1=O [Compound 179] | 0 percent control | 75 percent control |  | 
CCCCN1N=C(c2ccc(C(F)(F)F)cc2)NCC1=O [Compound 117] | 0 percent control | 90 percent control |  | 
C#CCN1CC(=O)N(CC#C)N=C1c1ccc(F)c(Br)c1 [Compound 217] | 0 percent control | 85 percent control |  | 
O=C1CN(CC2CC2)C(c2cccc(F)c2)=NN1CC1CC1 [Compound 222] | 50 percent control | 0 percent control |  | 
Cc1cccc(C2=NN(CC(F)(F)F)C(=O)CN2)c1 [Compound 154] | 75 percent control | 0 percent control |  | 
C#CCN1N=C(c2ccc(F)c(Br)c2)NCC1=O [Compound 218] | 80 percent control | 98 percent control |  | 
CCCCN1N=C(c2ccccc2OCc2ccccc2)NCC1=O [Compound 213] | 50 percent control | 85 percent control |  | 

Compound | Cucumber Powdery Mildew (CPM) protectant fungicide data, percent control [1] | Rice Blast (RB) protectant fungicide data, percent control [2] | pest or weed control at 300 g/ha [1] | pest or weed control at 300 g/ha [2]
CN1N=C(c2ccc(C(F)(F)F)cc2)NCC1=O [Compound 122] | 75 percent control | 75 percent control |  | 
COc1ccc(C2=NN(CC(F)(F)F)C(=O)CN2)cc1 [Compound 35] | 50 percent control | 50 percent control |  | 
CCCCN1N=C(c2cc(Cl)cc(Cl)c2)N(C(=O)OCI)CC1=O [Compound 16, 1-(n-butyl)-3-(3,5-dichlorophenyl)-4-(iodomethyloxycarbonyl)-4,5-dihydro-1,2,4-triazin-6-one] |  |  | 75% | 90%
CCCCN1N=C(c2ccc(Cl)c(Cl)c2)NCC1=S [Compound 17, 1-Butyl-3-(3,4-dichlorophenyl)-4,5-dihydro-1,2,4-triazin-6-thione] |  |  | 80% | 99%
C#CCN1N=C(c2cccc(C(F)(F)F)c2)NCC1=O [Compound 88] | 50 percent control | 100 percent control |  | 
CCOC(=O)CN1N=C(c2cccc(C)c2)NCC1=O [Compound 165] | 0 percent control | 80 percent control |  | 
CCCCN1N=C(C)NC(c2c(C)cc(C)cc2C)C1=O (stereo not shown) [Compound 82] | 25 percent control | 0 percent control |  | 
N#Cc1cccc(C2=NN(CC(F)(F)F)C(=O)CN2)c1 [Compound 176] | 50 percent control | 50 percent control |  | 
O=C1CNC(c2ccc(Cl)cc2)=NN1c1ccccn1 [Compound 59] | 0 percent control | 50 percent control |  | 
CCCCN1N=C(c2cccc(C3=NN(CCCC)C(=O)CN3)c2)NCC1=O [Compound 232] | 99 percent control | 100 percent control |  | 
Cn1nc(-c2ccc(Oc3ccccc3)cc2)ncc1=O [Compound 282] | 75 percent control | 75 percent control |  | 
O=C1CNC(c2ccc3ccccc3c2)=NN1CC(F)(F)F [Compound 143] | 50 percent control | 98 percent control |  | 
O=C1CNC(C2CCCCC2)=NN1CC(F)(F)F [Compound 45] | 0 percent control | 75 percent control |  | 
CCCCN1N=C(c2ccc(Cl)cc2Cl)NCC1=O [Compound 2, 1-butyl-3-(2,4-dichlorophenyl)-4,5-dihydro-1,2,4-triazin-6-one] |  |  | 85% | 95%
CCCCn1nc(-c2ccccc2O)ncc1=O [Compound 287] | 0 percent control | 80 percent control |  | 
C=COC(=O)N1CC(=O)N(CCCC)N=C1c1cccc(Cl)c1Cl [Compound 136] | 80 percent control | 100 percent control |  | 
Cc1ccccc1-c1nn(CC(F)(F)F)c(=O)c(=O)[nH]1 [Compound 291] |  |  | 0% | 80%
O=C1CNC(c2cccc(C(F)(F)F)c2)=NN1CC1CC1 [Compound 86] | 80 percent control | 99 percent control |  | 
CS(=O)(=O)N1CC(=O)N(CC(F)(F)F)N=C1c1ccc(Cl)cc1 [Compound 42] | 50 percent control | 99 percent control |  | 
CCCCn1nc(-c2cc(C(F)(F)F)cc(C(F)(F)F)c2)ncc1=O [Compound 288] | 75 percent control | 0 percent control |  | 
